Assay results as given in US5576296A, “Galanin antagonist” (priority 1991, dated 1996).
Square brackets hold non-standard residues; d marks the D form. Ends that are not written are not given here. Peptide text beside a SMILES is read from it.

These compounds were tested against galanin receptor (assay: Displacement of 125I-galanin, membranes from rat hypothalamus). Conditions: displacement experiments in rat hypothalamus, 125I-galanin.
Type: binding
Description: Adult male rats (Sprague-Dawley, 180-200 g) were decapitated, the hypothalami quickly dissected and homogenized (10% mass/vol.) in 0.05M TRIS-Cl buffer, pH 7.4. The homogenate was diluted tenfold and centrifuged at 1000 × g for 10 min. The supernatant was centrifuged at 10,000 × g for 45 min and the pellet resuspended in 5 mM Hepes buffered Krebs-Ringer solution (137 mM NaCl, 2.68 mM KCl, 1.8 mM CaCl2 1 g/1 glucose), pH 7.4 to yield a final protein concentration of 1.0-1.5 mg/ml.
Displacement experiments were carried out in a final volume of 400 μl of Hepes-buffered (5 mM) Krebs-Ringer solution, 0.05% (w/v) of BSA (pH 7.4 ) supplemented with bacitracin (1 mg/ml ) in the presence of 0.1-0.2 nM 1251-galanin, the membrane preparation from rat hypothalami and increasing concentrations (10-12, 10^-6M) of unlabeled galanin or of other galanin recepto-ligands. Samples were incubated for 30 min at 37° C. Incubation was terminated by the addition of 10 ml of ice-cold Hepes-buffered Krebs-Ringer solution, followed by rapid filtration over Whatman GF/C filters, precoated for 5-6 hours in 0.3% (v/v) of polyethylencimine solution. The filters were washed with 10 ml of assay solution. Radioactivity retained on the filters was determined in a Packard gamma counter. Specific binding was defined as that displaceable by 1 μM galanin.
The 1C50 values of the displacing ligands were calculated by fitting of the experimental data on a Macintosh SE by means of a nonlincar least squares method using the program "KaleidaGraph".

With `CC(C)C[C@H](NC(=O)[C@H](CC(C)C)NC(=O)[C@@H](Cc1c[nH]c2ccccc12)NC(=O)[C@H](Cc1ccccc1)NC(=O)[C@@H](Cc1c[nH]c2ccccc12)NC(=O)[C@H](CCC(N)=O)NC(=O)[C@H](CCC(N)=O)NC(=O)[C@@H]1CCCN1C(=O)[C@H](CCCCN)NC(=O)[C@@H]1CCCN1C(=O)[C@@H](CCCNC(=N)N)NC(=O)[C@@H]1CCCN1C(=O)CNC(=O)[C@H](CC(C)C)NC(=O)[C@H](CC(C)C)NC(=O)[C@H](Cc1ccc(O)cc1)NC(=O)CNC(=O)[C@H](C)NC(=O)[C@H](CO)NC(=O)[C@H](CC(N)=O)NC(=O)[C@H](CC(C)C)NC(=O)[C@@H](NC(=O)[C@H](Cc1c[nH]c2ccccc12)NC(=O)CN)[C@@H](C)O)C(N)=O` [C 7, Galanin(1-12)-Pro-Spantide amide] (H-GWTLNSAGYLLGP[dR]PKPQQ[dW]F[dW]LL-NH2; N-terminus assumed) as the compound, how does the IC50 read?
The IC50 was 0.2 nM.

For `CC[C@H](C)[C@H](NC(=O)[C@H](Cc1ccc(O)cc1)NC(=O)[C@H](Cc1c[nH]cn1)NC(=O)[C@H](CCCNC(=N)N)NC(=O)[C@@H]1CCCN1C(=O)CNC(=O)[C@H](CC(C)C)NC(=O)[C@H](CC(C)C)NC(=O)[C@H](Cc1ccc(O)cc1)NC(=O)CNC(=O)[C@H](C)NC(=O)[C@H](CO)NC(=O)[C@H](CC(N)=O)NC(=O)[C@H](CC(C)C)NC(=O)[C@@H](NC(=O)[C@H](Cc1c[nH]c2ccccc12)NC(=O)CN)[C@@H](C)O)C(=O)N[C@@H](CC(N)=O)C(=O)N[C@@H](CC(C)C)C(=O)N[C@H](C(=O)N[C@H](C(=O)N[C@@H](CCCNC(=N)N)C(=O)N[C@@H](CCC(N)=O)C(=O)N[C@@H](CCCNC(=N)N)C(=O)N[C@@H](Cc1ccc(O)cc1)C(N)=O)[C@@H](C)O)[C@@H](C)CC` [M 32, Galanin(1-13)-NPY(25-36) amide], which IC50 is on record?
Its IC50 is 0.05 nM.

For “GWTLNSAGYLLGARHYINLITRQRY-NH2 [M 88, Galanin(1-12)-Ala-NPY(25-36) amide]”, which IC50 is on record?
The IC50 was 1 nM.

How did the IC50 turn out when “GWTLNSAGYLLGPALALALA-NH2 [M 38, Galanin(1-13)-AlaLeuAlaLeuAlaLeuAla amide]” was run?
The IC50 was 0.2 nM.

Which IC50 does the source give for “GWTLNSAGYLLGPPGFSPFR-NH2 [M20, Galanin(1-13)-Bradykinin(3-9) amide]” here?
The IC50 was 1 nM.

For “GWTLNSAGYLLGPPPALALA-NH2 [M 40, Galanin(1-12)- -ProProProAlaLeuAlaLeuAla amide]”, which IC50 is on record?
Its IC50 is 13 nM.

“GWTLNSAGYLLGPPPLFGGY-NH2 [M36,A, Galanin(1-12)-ProProPro-Leuenkephalin(5-1) amide]” was tested. Which IC50 did it give?
Its IC50 is 20 nM.

How did the IC50 turn out when “GWTLNSAGYLLGPPPQQFFGLM-NH2 [M37, Galanin(1-12)-ProProPro-SP(5-11) amide]” was run?
Its IC50 is 40 nM.

For “GWTLNSAGYLLGPPPYGGFL-NH2 [M 36, Galanin(1-12)-ProProPro-Leuenkephalin(1-5) amide]”, which IC50 is on record?
The IC50 was 40 nM.

Same assay, conditions: membranes from rat hypothalami

With “Rat galanin: galanin of rat sequence, unlabeled displacer [reference compound]” as the compound, how does the “Displacement curves, rat versus porcine galanin” value read?
The value was “indistriguishable displacement curves”.
